Our source for the IC50 values is patent US10494364B2, “Cathepsin K inhibitors and application thereof” (SUNSHINE LAKE PHARMA CO., LTD., priority 2015, dated 2019).

Bounds are passed on as bounds.

What all share (type): biochemical
For one test, the target named is T1, human cathepsin K (Homo sapiens, UniProt P43235).
T1 sequence (P43235 115-329): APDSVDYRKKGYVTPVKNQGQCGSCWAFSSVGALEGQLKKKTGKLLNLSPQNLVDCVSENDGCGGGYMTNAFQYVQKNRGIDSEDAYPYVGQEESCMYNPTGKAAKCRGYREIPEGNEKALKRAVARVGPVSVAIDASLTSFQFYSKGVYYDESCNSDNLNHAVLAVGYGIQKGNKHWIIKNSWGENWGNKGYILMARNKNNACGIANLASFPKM
The test is described as follows: Assay of cathepsin K inhibitory activity in vitro. To be noted: IC50 against human cathepsin K; substrate Z-Phe-Arg-AMC 10 μM; 25° C.; read-out: Cat-K. The procedure:
Assay Method of Cathepsin K Inhibitory Activity In Vitro
Using 45000-fold diluted cathepsin K solution and 10 μM Z-Phe-Arg-AMC as substrate, the test compound and cathepsin K solution were incubated at 25° C. for 15 min in a 15 μL reaction system according to the optimized experimental condition.

Another test concerns the target human cathepsin B (Homo sapiens, UniProt P07858). Kind of test: Assay of cathepsin B inhibitory activity in vitro. As to conditions: IC50 against human cathepsin B; substrate Z-Phe-Arg-AMC 10 μM; 25° C.; read-out: Cat-B. As to the method:
Assay Method of Cathepsin B Inhibitory Activity In Vitro
0.01 ng/μL was the final concentration of Cathepsin B in the enzyme reaction, and Z-Phe-Arg-AMC with the final concentration of 10 μM was added into the reaction system as substrate, in the reaction system the test compound and enzyme had been incubated at 25° C. for 15 min.

Another test concerns the target human cathepsin L (Homo sapiens, UniProt P07711). The test is described as follows: Assay of cathepsin L inhibitory activity in vitro. To be noted: IC50 against human cathepsin L; substrate Z-Phe-Arg-AMC 10 μM; 25° C.; read-out: Cat-L. The procedure:
Assay Method of Cathepsin L Inhibitory Activity In Vitro
0.01 ng/μL was the final concentration of Cathepsin L in the enzyme reaction, and Z-Phe-Arg-AMC with the final concentration of 10 μM was added into the reaction system as substrate, in the reaction system the test compound and enzyme had been incubated at 25° C. for 15 min.

Another test deals with human cathepsin S (Homo sapiens, UniProt P25774). The test is described as follows: Assay of cathepsin S inhibitory activity in vitro. As to conditions: IC50 against human cathepsin S; substrate Z-VVR-AMC 20 μM; 25° C.; read-out: Cat-S. The procedure:
Assay Method of Cathepsin S Inhibitory Activity In Vitro
0.25 ng/L was the final concentration of Cathepsin S in the enzyme reaction, and Z-VVR-AMC with the final concentration of 20 μM was added into the reaction system as substrate, in the reaction system the test compound and enzyme had been incubated at 25° C. for 15 min.

human cathepsin S, sequence (P25774 115-331): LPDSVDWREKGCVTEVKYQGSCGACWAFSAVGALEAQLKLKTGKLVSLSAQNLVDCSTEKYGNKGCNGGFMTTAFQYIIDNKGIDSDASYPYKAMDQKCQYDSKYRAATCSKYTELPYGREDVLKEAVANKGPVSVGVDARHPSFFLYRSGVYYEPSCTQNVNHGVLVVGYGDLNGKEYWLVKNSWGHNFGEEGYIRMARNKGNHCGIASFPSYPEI
human cathepsin L, sequence (P07711 114-333): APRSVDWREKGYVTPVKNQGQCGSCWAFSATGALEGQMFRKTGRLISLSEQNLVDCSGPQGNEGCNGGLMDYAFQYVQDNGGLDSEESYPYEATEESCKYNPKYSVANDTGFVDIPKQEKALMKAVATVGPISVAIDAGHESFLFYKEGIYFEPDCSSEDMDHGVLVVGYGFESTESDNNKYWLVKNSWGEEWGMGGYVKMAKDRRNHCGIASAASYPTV

Consider `N#CC1(NC(=O)C2(NC(=O)c3cc4ccc(-c5csc(N6CCNC6=O)n5)cc4o3)CCCCC2)CC1` [Example 65], for which the IC50 is 1.3 nM at human cathepsin K, 697 nM at human cathepsin B, more than 10000 nM on human cathepsin L and more than 10000 nM at human cathepsin S.
`N#CC1(NC(=O)C2(NC(=O)c3cc4ccc(-c5ccc(C(O)CO)cc5)cc4o3)CCC(F)(F)CC2)CC1` (stereo not shown) [Example 6, N-(1-((1-cyanocyclopropyl)carbamoyl)-4,4-difluorocyclohexyl)-6-(4-(1,2-dihydroxyethyl)phenyl)benzofuran-2-carboxamide]: the IC50 at human cathepsin K is 3.1 nM; at human cathepsin B, 750 nM; on human cathepsin L, more than 10000 nM; at human cathepsin S, 620 nM.
With `COc1cc(-c2ccc3cc(C(=O)NC4(C(=O)NC5(C#N)CC5)CCC(F)(F)CC4)oc3c2)ccc1CS(C)(=O)=O` [Example 100], the IC50 at human cathepsin K amounted to 0.56 nM.
Consider `N#CC1(NC(=O)C2(NC(=O)c3cc4ccc(-c5ccc(C(O)C6(O)CC6)cc5)cc4o3)CCC(F)(F)CC2)CC1` (stereo not shown) [Example 15, N-(1-((1-cyanocyclopropyl)carbamoyl)-4,4-difluorocyclohexyl)-6-(4-(hydroxy(1-hydroxycyclopropyl)methyl)phenyl)benzofuran-2-carboxamide], for which the IC50 on human cathepsin K was 3.1 nM; at human cathepsin B, 750 nM; at human cathepsin L it was more than 10000 nM; on human cathepsin S, 620 nM.
For `COc1cc(-c2ccc3cc(C(=O)NC4(C(=O)NC5(C#N)CC5)CCC(F)(F)CC4)oc3c2)ccc1OCC(C)(C)O` [Example 44, N-(1-((1-cyanocyclopropyl)carbamoyl)-4,4-difluorocyclohexyl)-6-(4-(2-hydroxy-2-methylpropoxy)-3-methoxyphenyl)benzofuran-2-carboxamide], in that order: 2.35 nM, 7970 nM, more than 10000 nM and more than 10000 nM.
With `COc1cc(-c2ccc3cc(C(=O)NC4(C(=O)NC5(C#N)CC5)CCC(F)(F)CC4)oc3c2)ccc1C(=O)N1CCOCC1` [Example 40, N-(1-((1-cyanocyclopropyl)carbamoyl)-4,4-difluorocyclohexyl)-6-(3-methoxy-4-(morpholine-4-carbonyl)phenyl)benzofuran-2-carboxamide], the IC50 was 0.96 nM on human cathepsin K, 2220 nM at human cathepsin B, more than 10000 nM at human cathepsin L and more than 10000 nM on human cathepsin S.
Regarding `N#CC1(NC(=O)C2(NC(=O)c3cc4ccc(-c5ccc(C6(N)COC6)cc5)cc4o3)CCC(F)(F)CC2)CC1` [Example 14, 6-(4-(3-aminooxetan-3-yl)phenyl)-N-(1-((1-cyanocyclopropyl)carbamoyl)-4,4-difluorocyclohexyl)benzofuran-2-carboxamide], the IC50 on human cathepsin K was found to be 0.38 nM; at human cathepsin B it was 86 nM; at human cathepsin L, 3100 nM; on human cathepsin S it was 260 nM.
Consider `N#CC1(NC(=O)C2(NC(=O)c3cc4ccc(-c5ccc(N6CCOCC6=O)cc5)cc4o3)CCC(F)(F)CC2)CC1` [Example 28, N-(1-((1-cyanocyclopropyl)carbamoyl)-4,4-difluorocyclohexyl)-6-(4-(3-oxomorpholino)phenyl)benzofuran-2-carboxamide], for which the IC50 at human cathepsin K was 1.2 nM; on human cathepsin B it was 2200 nM; on human cathepsin L it was more than 10000 nM; at human cathepsin S, 1900 nM.
In the same order, the values of `N#CC1(NC(=O)C2(NC(=O)c3cc4ccc(-c5ccc(C6(O)COC6)cc5)cc4o3)CCCCCC2)CC1` [Example 79] are 0.72 nM, 330 nM, 7100 nM and 740 nM.
For `N#CC1(NC(=O)C2(NC(=O)c3cc4ccc(-c5ccc(C(O)C(N)=O)cc5)cc4o3)CCC(F)(F)CC2)CC1` (stereo not shown) [Example 90], in that order: 1.5 nM, 1200 nM, more than 10000 nM and 170 nM.
For `N#CC1(NC(=O)C2(NC(=O)c3cc4ccc(-c5ccc(C(=O)N6CCOCC6)cc5)cc4o3)CCC(F)(F)CC2)CC1` [Example 92], in that order: 1.4 nM, 6400 nM, more than 10000 nM and 2300 nM.
As to `N#CC1(NC(=O)C2(NC(=O)c3cc4ccc(-c5ccc(C6(O)CCOCC6)cc5)cc4o3)CCC(F)(F)CC2)CC1` [Example 22, N-(1-((1-cyanocyclopropyl)carbamoyl)-4,4-difluorocyclohexyl)-6-(4-(4-hydroxytetrahydro-2H-pyran-4-yl)phenyl)benzofuran-2-carboxamide], the IC50 was 1.8 nM on human cathepsin K, 3100 nM on human cathepsin B, more than 10000 nM at human cathepsin L and 1800 nM on human cathepsin S.
Turning to `CS(=O)(=O)c1cccc(-c2ccc3cc(C(=O)NC4(C(=O)NC5(C#N)CC5)CCCCC4)oc3c2)c1` [Example 64], the IC50 at human cathepsin K was 0.88 nM; on human cathepsin B, 373 nM; at human cathepsin L, more than 10000 nM; on human cathepsin S it was 637 nM.
For `N#CC1(NC(=O)C2(NC(=O)c3cc4ccc(-c5ccc6ncoc6c5)cc4o3)CCC(F)(F)CC2)CC1` [Example 32, 6-(benzo[d]oxazol-6-yl)-N-(1-((1-cyanocyclopropyl)carbamoyl)-4,4-difluorocyclohexyl)benzofuran-2-carboxamide], in that order: 1.9 nM, 7600 nM, more than 10000 nM and 3300 nM.
Turning to `COc1cc(-c2ccc3cc(C(=O)NC4(C(=O)NC5(C#N)CC5)CCC(F)(F)CC4)oc3c2)ccc1OC(F)F` [Example 94], the IC50 at human cathepsin K is 2.4 nM; on human cathepsin B, 4000 nM; at human cathepsin L it was more than 10000 nM; on human cathepsin S, 6500 nM.
With `CS(=O)(=O)c1ccc(-c2ccc3cc(C(=O)NC4(C(=O)NC5(C#N)CC5)CCCCC4)oc3c2)cc1` [Example 62], the IC50 was 1.37 nM at human cathepsin K, 880 nM at human cathepsin B, more than 10000 nM on human cathepsin L and 4000 nM at human cathepsin S.
For `COC1(c2ccc(-c3ccc4cc(C(=O)NC5(C(=O)NC6(C#N)CC6)CCCCC5)oc4c3)cc2)COC1` [Example 71], in that order: 2.1 nM, 290 nM, more than 10000 nM and more than 10000 nM.
In the same order, the values of `CC1(COc2ccc(-c3ccc4cc(C(=O)NC5(C(=O)NC6(C#N)CC6)CCC(F)(F)CC5)oc4c3)cc2)COC1` [Example 93] are 2.96 nM, 4300 nM, more than 10000 nM and more than 10000 nM.
`N#CC1(NC(=O)C2(NC(=O)c3cc4ccc(-c5ccc(C6(F)COC6)cc5)cc4o3)CCCCC2)CC1` [Example 73]: the IC50 at human cathepsin K was 3.04 nM; on human cathepsin B, 1120 nM; at human cathepsin L, more than 10000 nM; on human cathepsin S, more than 10000 nM.
As for `N#CC1(NC(=O)C2(NC(=O)c3cc4ccc(-c5ccc(C6(F)CCS(=O)(=O)CC6)cc5)cc4o3)CCCCC2)CC1` [Example 83], the IC50 at human cathepsin K was 2.2 nM; on human cathepsin B it was 1600 nM; at human cathepsin L it was more than 10000 nM; on human cathepsin S, more than 10000 nM.
As for `N#CC1(NC(=O)C2(NC(=O)c3cc4ccc(-c5csc(-n6cncn6)n5)cc4o3)CCC(F)(F)CC2)CC1` [Example 57, 6-(2-(1H-1,2,4-triazol-1-yl)thiazol-4-yl)-N-(1-((1-cyanocyclopropyl)carbamoyl)-4,4-difluorocyclohexyl)benzofuran-2-carboxamide], the IC50 on human cathepsin K was 1.3 nM; at human cathepsin B, more than 10000 nM; at human cathepsin L it was more than 10000 nM; at human cathepsin S, 416 nM.
As to `CS(=O)(=O)c1ccc(-c2ccc3cc(C(=O)NC4(C(=O)NC5(C#N)CC5)CCCC4)oc3c2)cc1` [Example 70], the IC50 at human cathepsin K is 8.6 nM; at human cathepsin B, 530 nM; at human cathepsin L, more than 10000 nM; on human cathepsin S it was 5060 nM.
Regarding `N#CC1(NC(=O)C2(NC(=O)c3cc4ccc(-c5ccc(-n6cn[nH]c6=O)cc5)cc4o3)CCC(F)(F)CC2)CC1` [Example 85], the IC50 is 1.26 nM on human cathepsin K, 2200 nM on human cathepsin B, more than 10000 nM at human cathepsin L and 1500 nM on human cathepsin S.
As to `COc1cc(-c2ccc3cc(C(=O)NC4(C(=O)NC5(C#N)CC5)CCC(F)(F)CC4)oc3c2)ccc1OCS(C)(=O)=O` [Example 101], the IC50 at human cathepsin K is 0.88 nM.
Same read-out and setting: then `CS(=O)(=O)COc1ccc(-c2ccc3cc(C(=O)NC4(C(=O)NC5(C#N)CC5)CCC(F)(F)CC4)oc3c2)cc1` [Example 98], with 1.02 nM.
